Earlier results as cited in patent publication US20260335285A1, “A TOPICAL COMPOSITION COMPRISING CHLORINE E6 AND ZINC L-PYROGLUTAMATE” (ZXA GROUP LTD., priority 2022, published 2026).

Conditions: known in the art; topical

## C=Cc1c(C)c2cc3nc(c(CC(=O)O)c4[nH]c(cc5nc(cc1[nH]2)C(C)=C5CC)c(C)c4C(=O)O)[C@@H](CCC(=O)O)[C@@H]3C [chlorine e6, (17S,18S)-18-(2-carboxyethyl)-20-(carboxymethyl)-12-ethenyl-7-ethyl-3,8,13,17-tetramethyl-17,18,22,23-tetrahydroporphyrin-2-carboxylic acid]
  delivery into the skin: inefficient delivery into the skin
